Measured values from patent publication US4683229A, “6-halo-9-alkenyleneoxy-3-alkyl-2,3,4,5-tetrahydro-(1H-3)-benzazepines and their use as selective alpha-adrenergic receptor antagonists” (SmithKline Beckman Corporation, priority 1986, dated 1987).
Entries after “also recorded” stand apart in the source; their conditions may differ. Read-outs that look alike come from different tables or passages of the source.

Columns and labels:
[1] = tested on: alpha1 adrenoceptor (rabbit aorta); test: Alpha1 activity in rabbit aorta segments: antagonism of norepinephrine contraction; assay type: cell-based; settings: for Kb: read-out: KB alpha1 Aorta, norepinephrine agonist
Protocol: Alpha1 activity was determined using the rabbit aorta. Male New Zealand White rabbits (2-4 Kg) were euthanized by cervical concussion. A 4 cm portion of the thoracic aorta was removed and placed in a dish of cold (10° C.) Krebs-Hensleit solution. The tissue was cleaned of fat and connective tissue and cut into segments of approximately 3 mm in length. These segments were suspended in 10 ml tissue baths via hangers constructed of 0.25 mm tungsten wire. One hanger was fixed to a support in the bath, the other attached via silk thread to a force-displacement transducer.
Tissue segments were equilibrated for 2 hours prior to drug testing, during which time basal tension was maintained at 2 gm. Tissues were washed at 30 minute intervals during this equilibration period. The Krebs-Hensleit solution contained cocaine (6 μM) to block neuronal uptake and propranolol (1 μM) to block beta-adrenoceptors. Tissues were usually challenged once with norepinephrine (0.1 μM) during the equilbration period to check for viability.
A cumulative concentration-response curve to norepinephrine was obtained in each aortic segment. Following washout of norepinephrine, the alpha adrenoceptor antagonist to be tested was added to the bath. After the tissue had been in contact with the antagonist for 30-60 minutes, the norepinephrine concentration response-curve was repeated in the presence of antagonist. The tissue was then washed again, and a tenfold higher concentration of antagonist added. Following equilibration (30-60 minutes), a third norepinephrine concentration-response curve was determined in the presence of the antagonist.
(§1) The receptor dissociation constant (KB) for the antagonist was determined using the relationship [formula] (Furchgott, R. F., Handbook of Experimental Pharmacology, eds. Eichler, et al., pp. 283-335 (Springer 1972)). The KB value obtained at each antagonist concentration was averaged to obtain a mean KB for each experiment.
(§2) The results are expressed in nanomolar concentrations. Compound (D) is the prior art compound mentioned above; compounds (E) and (F) are compounds of the present invention.

[2] = molecular target: T1, alpha2 receptor (guinea pig vas deferens) (Cavia porcellus, UniProt Q60474); test: Alpha2 activity in isolated, superfused guinea pig vas deferens: stimulated/basal 3H-norepinephrine release; assay type: cell-based; settings: for alpha2 effects in guinea pig vas deferens (in words): up to the highest tested concentration
T1 construct: both vasa deferentia were removed and placed in a dish; from tissue; host or cells: isolated vas deferens of male guinea pigs
T1 sequence (Q60474 1-464): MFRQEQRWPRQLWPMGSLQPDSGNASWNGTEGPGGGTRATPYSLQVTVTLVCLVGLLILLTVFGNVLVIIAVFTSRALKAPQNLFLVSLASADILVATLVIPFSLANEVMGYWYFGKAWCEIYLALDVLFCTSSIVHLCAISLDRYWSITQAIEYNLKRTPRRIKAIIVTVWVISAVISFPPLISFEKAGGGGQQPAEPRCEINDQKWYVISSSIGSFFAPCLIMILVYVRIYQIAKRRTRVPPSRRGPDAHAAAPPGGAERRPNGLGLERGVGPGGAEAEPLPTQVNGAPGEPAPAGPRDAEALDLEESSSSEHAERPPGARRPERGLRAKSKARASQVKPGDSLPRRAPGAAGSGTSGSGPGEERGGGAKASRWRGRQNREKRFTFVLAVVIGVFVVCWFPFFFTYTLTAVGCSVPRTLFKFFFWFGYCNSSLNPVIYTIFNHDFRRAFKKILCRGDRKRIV
From the text: The second system utilized in determining the alpha2 activity of the compounds of interest is the isolated, superfused guinea pig vas deferens (Vas Def). From male (300-600 g) guinea pigs sacrificed by administration of a lethal amount of pentobarbital, both vasa deferentia were removed and placed in a dish containing a cold nutrient-buffer solution. The tissue was cleaned and the fibrous sheath removed gently. The ends were trimmed to yield segments about 4 cm in length and 4-0 silk ties attached to each end. The vasa deferentia then were incubated in 10 ml of nutrient-buffer solution containing […] of ^3 H-norepinephrine. Tissue was incubated at 37° C. for 30 minutes with continuous gassing with 95% O2, 5% CO2. After incubation, the tissue was mounted in a superfusion apparatus constructed of 3 mm ID glass tubing. One end was connected, via the silk tie, to a plug constructed of silicone rubber and polyethylene with a platinum wire hook. The other tie was connected to a force-displacement transducer. About 1 g of tension was applied to the tissue, and superfusion with nutrient-buffer solution initiated at 2 ml/minute, using a peristaltic pump. The chambers had platinum electrodes fused through the glass at the top and bottom to allow field stimulation of the tissue.
Before compound testing, tissues were equilibrated for at least 2 hours, during which time stimulation (3 Hz, 0.7 msec pulse duration, 80 V) was applied for 2 minutes at 30 minute intervals. Following this equilibration period, three control stimulations were performed. For each stimulation, two effluent samples were collected directly into 20 ml scintillation vials; one prior to, and one during field stimulation. The basal sample was collected during a 2 minute interval immediately prior to stimulation. The stimulation sample was collected beginning 30 seconds after initiation of stimulation, and continuing for 30 seconds following termination of the field stimulation. This lag period is to allow for the dead space in the superfusion chamber. This collection-stimulation procedure was repeated at 20 minute intervals. Following the third control collection, compound was added into the superfusion flow; 20 minutes later the collection-stimulation was repeated in the presence of compound. Compound concentration was increased ten-fold following each stimulation, and the cycle repeated until four drug concentrations had been tested. A final stimulation-collection was performed after termination of compound superfusion.
Ten ml of standard scintillation fluid (Aquasol-II) was added to all samples, and the DPM values were determined on a beta-scintillation counter. The stimulated/basal release ratio was determined for each pair. The stimulated/basal ratios for the three initial control collections were averaged to obtain a mean control ratio. The compound effect was determined by comparing the stimulated/basal ratio in the presence of increasing compound concentration to the mean control ratio. The EC50 was defined as the compound concentration producing a 50% increase in the stimulated/basal release ratio.
as §2

[3] = tested on: alpha3 receptor (dog saphenous vein); test: Alpha3 activity in dog saphenous vein: shift of BHT-920 dose-response curve; assay type: cell-based; settings: for antagonism in the alpha3 test system (in words) / Kb: dog saphenous vein; for separation in the concentrations producing alpha2 and alpha3 effects: guinea pig vas deferens (alpha2) vs dog saphenous vein (alpha3); for Kb: read-out: KB alpha3 DSV, BHT-920 agonist
Protocol: as §1
The dog saphenous vein (DSV) was used as the test system for measuring activity of the compounds at the alpha3 receptor. This test system has been shown a suitable preparation in which to characterize postsynaptic alpha2 (alpha3) adrenoceptors. Sullivan, A. T. and G. M. Drew, Arch. Pharmacol. 314:249-58 (1980). This test system is prepared by removing the lateral saphenous vein from an anesthetized dog and cutting the vein into segments of 10 mm in length. Each segment then is cut into a helical strip and mounted, in a tissue bath, between a stationary tissue holder and transducer with which isometric contractions are recorded as changes in grams of tension. Additional details of this methodology are found in Fowler, P. J., et al., J. Pharmacol. Exp. Ther. 229:712-18 (1984).
The alpha3 activity of the compounds of interest is determined by measuring shifts in the dose-response curve of a specific agonist induced by the tested compounds. The alpha2 specific agonist, BHT-920, was used in testing the compounds listed in Table I. Data are reported as KB, defined above.
as §2

[4] = Mean arterial blood pressure and heart rate in spontaneously hypertensive rats; assay type: in vivo; settings: 1.5 mg/kg intravenously
Protocol: Further, spontaneously hypertensive rats were dosed, intravenously, at a dose of 1.5 mg/kg, with a solution of one of the compounds of the invention (Compound E, Table I) and mean arterial blood pressure was monitored for 45 minutes using indwelling cannulae positioned in the tail arteries. At the end of the 15 minute infusion, systolic and diasystolic pressures had reached their nadirs and were each approximately 30 to 35 mm Hg below vehicle-treated controls. Thirty minutes following cessation of the infusion, systolic and diasystolic pressures remained approximately 20 mm Hg less than the controls. Also, heart rate was measured during the period blood pressure was monitored.

[5] = molecular target: T2, alpha2 receptor (guinea pig left atrium) (Cavia porcellus, UniProt Q60474); test: Alpha2 activity in isolated, superfused guinea pig left atrium: antagonism of clonidine; assay type: cell-based; settings: for alpha2 effects in guinea pig atrium (in words): up to the highest tested concentration
T2 construct: The left atrium is separated, dissected free of extraneous tissue; from tissue; host or cells: isolated left atrium of male guinea pig
T2 sequence (Q60474 1-464): T1 sequence (Q60474 1-464)
Protocol: as §1
One of the two systems employed to determine alpha2 activity of the compounds was the isolated, superfused guinea pig left atrium. Briefly, the heart is removed from a pentobarbital-anesthetized male guinea pig. The left atrium is separated, dissected free of extraneous tissue and mounted in a 2 ml superfusion chamber. The tissue is paced at 60 pulse/minute and the sympathetic nerves excited at 6 minute intervals by field stimulation. The response to nerve stimulation is measured as the difference in contractile force between the basal contraction and peak contraction following a nerve stimulation. A concentration-response curve for clonidine (a known alpha2 […]) is prepared by administering increasing concentrations of clonidine following each successive stimulation. The tissue then is superfused for thirty minutes with the alpha-adrenoceptor antagonist to be tested and the clonidine concentration-effect curve is repeated in the presence of antagonist. Data are reported as KB, defined above. Additional details of this test system are found in Hieble, J. P. and R. G. Pendleton, Arch. Pharmacol., 309:217-224 (1979).
as §2

[6] = thirty minutes following cessation of the infusion

CC(C)=CCOc1ccc(Cl)c2c1CCN(C)CC2 [Compound E, 9-(3-methyl-2-butenyloxy)-6-chloro-3-methyl-2,3,4,5-tetrahydro-1H-3-benzazepine]
alpha1 activity compared among compounds D, E and F (in words) [1]: similar | Kb [1]: 150 nM | EC50 [2]: > 10000 nM | alpha2 effects in guinea pig vas deferens (in words) [2]: no alpha2 effects | antagonism in the alpha3 test system (in words) [3]: potent antagonists | separation in the concentrations producing alpha2 and alpha3 effects [3]: ≥ 200 fold | Kb [3]: 37 nM | reflex tachycardia (heart rate) ([4]; heart rate measured during blood pressure monitoring): No statistically significant reflex tachycardia | diastolic pressure less than controls, after infusion [4, 6]: approximately 20 mm Hg | systolic pressure less than controls, after infusion [4, 6]: approximately 20 mm Hg | Kb [5]: > 10000 nM | alpha2 effects in guinea pig atrium (in words) [5]: no alpha2 effects

C=CCOc1ccc(Cl)c2c1CCN(C)CC2.Cl [D, 9-allyloxy-6-chloro-3-methyl-2,3,4,5-tetrahydro-1H-3-benzazepine hydrochloride, reference compound]
alpha1 activity compared among compounds D, E and F (in words) [1]: similar | Kb [1]: 150 nM | EC50 [2]: 224 nM | alpha2 effects in guinea pig vas deferens (in words) [2]: significant activity at the alpha2 receptor | alpha3 adrenoceptor selectivity vis-a-vis alpha2 (in words) ([3]; alpha3 vs alpha2, hydrochloride): does not approach the high degree of specificity exhibited by the presently invented compounds; also recorded: insignificant alpha3 -adrenoceptor selectivity | separation in the concentrations producing alpha2 and alpha3 effects [3]: four | Kb [3]: 54 nM | Kb [5]: 903 nM | alpha2 effects in guinea pig atrium (in words) [5]: significant activity at the alpha2 receptor

CC=COc1ccc(Cl)c2c1CCN(C)CC2 [F, 9-(1-propenyloxy)-6-chloro-3-methyl-2,3,4,5-tetrahydro-1H-3-benzazepine]
alpha1 activity compared among compounds D, E and F (in words) [1]: similar | Kb [1]: 31 nM | EC50 ([2]; guinea pig vas deferens, concentration producing a 50% increase in the stimulated/basal release ratio, read-out: EC50 alpha2 Vas Def): > 10000 nM | alpha2 effects in guinea pig vas deferens (in words) [2]: no alpha2 effects | antagonism in the alpha3 test system (in words) [3]: potent antagonists | Kb [3]: 100 to 200 nM | Kb ([5]; guinea pig left atrium, clonidine, read-out: KB alpha2 Atrium): > 1000 nM | alpha2 effects in guinea pig atrium (in words) [5]: no alpha2 effects
